As usually defined, the IC50 is the point on the concentration scale where inhibition reaches its midpoint.

Experimental findings from patent publication US6841546B2, “Substituted tetracycline compounds as antifungal agents” (Paratek Pharmaceuticals, Inc., priority 2001, dated 2005) are described below.

Some results are limits rather than exact numbers.

The data set is described as follows: Mammalian Cytotoxicity Assay (Resazurin). It is filed as cell-based. The settings on record: African green monkey (COS-1) and Chinese hamster (CHO). As to the method: COS-1 and CHO cell suspensions are prepared, seeded into 96-well tissue culture treated black-walled microtiter plates (density determined by cell line), and incubated overnight at 37° C., in 5% CO2 and approximately 95% humidity. The following day serial dilutions of drug are prepared under sterile conditions and transferred to cell plates. Cell/Drug plates are incubated under the above conditions for 24 hours. Following the incubation period, media/drug is aspirated and 50 μl of Resazurin is added. Plates are then incubated under the above conditions for 2 hours and then in the dark at room temperature for an additional 30 minutes. Fluorescence measurements are taken (excitation 535 nm, emission 590 nm). The IC50 (concentration of drug causing 50% growth inhibition) is then calculated.
In general terms: Resazurin is reduced to fluorescent resorufin, in cell work by metabolically active cells.

`CN(C)c1ccc(O)c2c1C[C@H]1C[C@H]3[C@H](N(C)C)C(O)=C(C(N)=O)C(=O)[C@@]3(O)C(O)=C1C2=O` [minocycline] showed an IC50 at 24 h greater than 25 µg/mL.
Take `C[C@H]1c2cccc(O)c2C(=O)C2=C(O)[C@]3(O)C(=O)C(C(N)=O)=C(O)[C@@H](N(C)C)[C@@H]3[C@@H](O)[C@@H]21` [doxycycline]: the IC50 at 24 h was greater than 25 µg/mL.
